Laboratory results from patent publication US20230303570A1, “KINASE INHIBITORS AND USES THEREOF” (ABM Therapeutics Corporation, priority 2020, published 2023).

The compounds below were run against T1, SRC (Homo sapiens, UniProt P12931) (assay: In vitro kinase assay, SRC (Caliper EZ Reader conversion)). Settings: read-out: SRC IC50.
T1 construct: purchased Carna Biosciences
Format: biochemical
Procedure: (§1) The effect of the compounds on the activity of SRC and PAK1 kinase were assessed. SRC and PAK1 kinase enzymes were obtained from Carna Biosciences.
Test compounds were dissolved in 100% DMSO to prepare a 20 mM stock. Compounds were stored in −20° C. and protected from light. […] Saracatinib was used as a positive control for the SRC assay, and FRAX597 was used as a positive control for the PAK1 assay. For the positive controls, a 3-fold serial dilution was made to achieve a total of 10 concentrations. 10 μL 1× Kinase buffer was used as the negative control.
First, 250 nL of the compounds at each dilution were transferred into wells of a 384-well plate. […] Then, 10 μL of enzyme mix was added to the 384-well plate, and the enzymes and compounds were pre-incubated at room temperature for 10 minutes. […] Then, 15 μL of substrate mix was added to a 384-well plate and reacted at room temperature for 30 min and 60 min. The reaction was stopped by adding 30 μL of the stop buffer, and the conversion rate was read using a Caliper EZ Reader.
(§2) Percent inhibition is calculated according to the following equation: […]
(§3) wherein “Conversion %_sample” is the conversion percentage value of the sample; “Conversion %_min” is the average conversion percentage value of the negative control; and “Conversion %_max” is the average conversion percentage value of the positive control.
(§4) The dose-response curve was fitted using GraphPad Prism software (version 5, […]), and the IC50 values for each compounds were calculated by log(inhibitor) vs. response using a variable slope program with the following formula:
(§5) Y=Bottom+(Top-Bottom)/(1+10^((Log IC50−X)*HillSlope))

T1 sequence (P12931 whole entry): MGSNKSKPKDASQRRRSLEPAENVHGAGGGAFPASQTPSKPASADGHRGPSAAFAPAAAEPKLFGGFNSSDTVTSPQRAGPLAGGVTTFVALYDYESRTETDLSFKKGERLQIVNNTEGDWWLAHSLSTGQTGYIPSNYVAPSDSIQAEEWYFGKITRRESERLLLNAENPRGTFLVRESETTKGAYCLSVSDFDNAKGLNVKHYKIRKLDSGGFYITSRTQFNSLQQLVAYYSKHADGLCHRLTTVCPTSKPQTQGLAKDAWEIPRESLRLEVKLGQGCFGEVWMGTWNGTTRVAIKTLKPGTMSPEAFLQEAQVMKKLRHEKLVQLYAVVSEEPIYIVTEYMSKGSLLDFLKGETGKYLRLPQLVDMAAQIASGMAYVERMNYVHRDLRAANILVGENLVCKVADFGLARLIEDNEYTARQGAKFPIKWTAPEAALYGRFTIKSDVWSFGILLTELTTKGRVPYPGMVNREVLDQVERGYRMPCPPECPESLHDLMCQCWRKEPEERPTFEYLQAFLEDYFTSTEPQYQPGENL

Structure (SMILES)	IC50 [µM]
Fc1ccccc1Nc1ncc2c(n1)N1CCCN=C1C(c1cccc3[nH]ncc13)=C2 [Compound 58, N-(2-fluorophenyl)-6-(1H-indazol-4-yl)-9,10-dihydro-8H-pyrido[1,6-a:2,3-d′]dipyrimidin-2-amine]	0.1 to 10
Fc1cc(N2CCNCC2)ccc1Nc1ncc2c(n1)N1CCN=C1C=C2 [Compound 10, N-(2-fluoro-4-(piperazin-1-yl)phenyl)-8,9-dihydroimidazo[1′,2′:1,6]pyrido[2,3-d]pyrimidin-2-amine]	> 10
COc1nc(N2CCNCC2)ccc1Nc1ncc2c(n1)N1CCN=C1C(c1ccncc1)=C2 [Compound 41, N-(2-methoxy-6-(piperazin-1-yl)pyridin-3-yl)-6-(pyridin-4-yl)-8,9-dihydroimidazo[1′,2′:1,6]pyrido[2,3-d]pyrimidin-2-amine]	> 10
C1=C(c2ccccc2)C2=NCCCN2c2nc(Nc3ccncc3)ncc21 [Compound 53, 6-phenyl-N-(pyridin-4-yl)-9,10-dihydro-8H-pyrido[1,6-a:2,3-d′]dipyrimidin-2-amine]	> 10
Clc1ccccc1C1=Cc2cnc(Nc3ccncc3)nc2N2CCCN=C12 [Compound 54, 6-(2-chlorophenyl)-N-(pyridin-4-yl)-9,10-dihydro-8H-pyrido[1,6-a:2,3-d′]dipyrimidin-2-amine]	> 10
CCN1CCN(c2ccc(Nc3ncc4c(n3)N3CCN=C3C(c3ccc(Cl)cc3Cl)=C4)c(F)c2)CC1 [Compound 9, 6-(2,4-dichlorophenyl)-N-(4-(4-ethylpiperazin-1-yl)-2-fluorophenyl)-8,9-dihydroimidazo[1′,2′:1,6]pyrido[2,3-d]pyrimidin-2-amine]	< 0.1
CN1CCN(c2ccc(Nc3ncc4c(n3)N3CCN=C3C(c3ccc(Cl)cc3Cl)=C4)c(F)c2)CC1 [Compound 8, 6-(2,4-dichlorophenyl)-N-(2-fluoro-4-(4-methylpiperazin-1-yl)phenyl)-8,9-dihydroimidazo[1′,2′:1,6]pyrido[2,3-d]pyrimidin-2-amine]	< 0.1
Clc1cccc(Cl)c1C1=Cc2cnc(N3CCN(c4ccncc4)CC3)nc2N2CCN=C12 [Compound 51, 6-(2,6-dichlorophenyl)-2-(4-(pyridin-4-yl)piperazin-1-yl)-8,9-dihydroimidazo[1′,2′:1,6]pyrido[2,3-d]pyrimidine]	0.1 to 10
Fc1cnccc1Nc1ncc2c(n1)N1CCCN=C1C(c1ccccc1)=C2 [Compound 55, N-(3-fluoropyridin-4-yl)-6-phenyl-9,10-dihydro-8H-pyrido[1,6-a:2,3-d′]dipyrimidin-2-amine]	> 10
Fc1ccccc1Nc1ncc2c(n1)N1CCCN=C1C(c1ccccc1)=C2 [Compound 56, N-(2-fluorophenyl)-6-phenyl-9,10-dihydro-8H-pyrido[1,6-a:2,3-d′]dipyrimidin-2-amine]	> 10

Continued, values first:

IC50 [µM]	Structure (SMILES)
> 10	Oc1ccncc1Nc1ncc2c(n1)N1CCCN=C1C(c1ccccc1Cl)=C2 [Compound 67, 3-((6-(2-chlorophenyl)-9,10-dihydro-8H-pyrido[1,6-a:2,3-d′]dipyrimidin-2-yl)amino)pyridin-4-ol]
0.1 to 10	COc1cccc(Nc2ncc3c(n2)N2CCCN=C2C(c2ccccc2Cl)=C3)c1 [Compound 60, 6-(2-chlorophenyl)-N-(3-methoxyphenyl)-9,10-dihydro-8H-pyrido[1,6-a:2,3-d′]dipyrimidin-2-amine]
0.1 to 10	Cc1ccc(NC(=O)c2cc(C(F)(F)F)ccn2)cc1C1=Cc2cnc(N)nc2N2CCCN=C12 [Compound 76, N-(3-(2-amino-9,10-dihydro-8H-pyrido[1,6-a:2,3-d′]dipyrimidin-6-yl)-4-methylphenyl)-4-(trifluoromethyl)picolinamide]
0.1 to 10	CCNc1ncc2c(n1)N1CCCN=C1C(c1c(C)ccc3[nH]ncc13)=C2 [Compound 66, N-ethyl-6-(5-methyl-1H-indazol-4-yl)-9,10-dihydro-8H-pyrido[1,6-a:2,3-d′]dipyrimidin-2-amine]
0.1 to 10	COc1ccccc1Nc1ncc2c(n1)N1CCCN=C1C(c1ccccc1Cl)=C2 [Compound 61, 6-(2-chlorophenyl)-N-(2-methoxyphenyl)-9,10-dihydro-8H-pyrido[1,6-a:2,3-d′]dipyrimidin-2-amine]

What follows are compounds tested against HPK1 (MAP4K1) (Homo sapiens, UniProt Q92918) (assay: HPK1 (MAP4K1) kinase Lantha screen assay). Settings: not given.
HPK1 (MAP4K1), sequence (Q92918 whole entry, species assumed): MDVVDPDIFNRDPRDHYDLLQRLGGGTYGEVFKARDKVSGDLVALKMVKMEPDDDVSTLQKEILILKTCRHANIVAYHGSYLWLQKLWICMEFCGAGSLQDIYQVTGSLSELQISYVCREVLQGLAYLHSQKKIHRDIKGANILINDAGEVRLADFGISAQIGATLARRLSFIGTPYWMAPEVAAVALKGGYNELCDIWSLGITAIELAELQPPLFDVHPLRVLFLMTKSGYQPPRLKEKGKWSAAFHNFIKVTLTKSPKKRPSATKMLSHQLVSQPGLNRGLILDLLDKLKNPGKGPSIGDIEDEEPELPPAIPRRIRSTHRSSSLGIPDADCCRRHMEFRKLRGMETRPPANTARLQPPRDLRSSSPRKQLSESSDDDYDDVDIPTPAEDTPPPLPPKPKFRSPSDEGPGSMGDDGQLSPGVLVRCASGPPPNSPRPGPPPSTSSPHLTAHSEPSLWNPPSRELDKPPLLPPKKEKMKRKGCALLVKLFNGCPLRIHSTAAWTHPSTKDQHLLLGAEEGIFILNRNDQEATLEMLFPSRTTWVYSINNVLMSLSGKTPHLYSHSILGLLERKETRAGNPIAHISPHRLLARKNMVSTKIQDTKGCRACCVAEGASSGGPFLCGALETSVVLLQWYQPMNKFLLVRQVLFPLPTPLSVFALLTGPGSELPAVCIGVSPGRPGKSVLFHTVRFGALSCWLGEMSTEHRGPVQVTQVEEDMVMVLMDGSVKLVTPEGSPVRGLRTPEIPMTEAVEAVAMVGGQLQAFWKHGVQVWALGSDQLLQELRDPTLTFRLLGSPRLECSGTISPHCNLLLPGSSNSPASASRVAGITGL
Format: biochemical
In short: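 Recombinant MAP4K1 preincubated 10 min with compound (6-point dilution, duplicates) in 50 mM HEPES pH 7.5, 10 mM MgCl2, then reacted with Fluorescein-PKC substrate and ATP for 90 min at room temperature. Antibody detection solution stopped reaction; after 60 min, TR-FRET read at ex 340 nm, em 520/495 nm.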

IC50 [µM]	Structure (SMILES)
0.1 to 10	CNc1ncc2c(n1)N1CCN=C1C(c1cc(NC(=O)c3cc(C(F)(F)F)ccn3)ccc1C)=N2 [Compound 124, N-(4-methyl-3-(2-(methylamino)-8,9-dihydroimidazo[2,1-h]pteridin-6-yl)phenyl)-4-(trifluoromethyl)picolinamide]
0.1 to 10	COCCNc1ncc2c(n1)N1CCN=C1C(c1cc(NC(=O)c3cc(C(F)(F)F)ccn3)ccc1C)=C2 [Compound 112, N-(3-(2-((2-methoxyethyl)amino)-8,9-dihydroimidazo[1′,2′:1,6]pyrido[2,3-d]pyrimidin-6-yl)-4-methylphenyl)-4-(trifluoromethyl)picolinamide]
> 10	Cc1ccc(NC(=O)c2cc(C(F)(F)F)ccn2)cc1C1=Cc2cnc(NS(C)(=O)=O)nc2N2CCN=C12 [Compound 117, N-(4-methyl-3-(2-(methylsulfonamido)-8,9-dihydroimidazo[1′,2′:1,6]pyrido[2,3-d]pyrimidin-6-yl)phenyl)-4-(trifluoromethyl)picolinamide]
0.1 to 10	CNc1ncc2c(n1)N1CCN=C1C(c1cc(NC(=O)c3cc(C(F)(F)F)ccn3)cnc1C)=C2 [Compound 191, N-(6-methyl-5-(2-(methylamino)-8,9-dihydroimidazo[1′,2′:1,6]pyrido[2,3-d]pyrimidin-6-yl)pyridin-3-yl)-4-(trifluoromethyl)picolinamide]

These compounds were tested against PAK1 (Homo sapiens, UniProt Q13153) (assay: In vitro kinase assay, PAK1 (Caliper EZ Reader conversion)). Settings: not given.
PAK1, sequence (Q13153 whole entry): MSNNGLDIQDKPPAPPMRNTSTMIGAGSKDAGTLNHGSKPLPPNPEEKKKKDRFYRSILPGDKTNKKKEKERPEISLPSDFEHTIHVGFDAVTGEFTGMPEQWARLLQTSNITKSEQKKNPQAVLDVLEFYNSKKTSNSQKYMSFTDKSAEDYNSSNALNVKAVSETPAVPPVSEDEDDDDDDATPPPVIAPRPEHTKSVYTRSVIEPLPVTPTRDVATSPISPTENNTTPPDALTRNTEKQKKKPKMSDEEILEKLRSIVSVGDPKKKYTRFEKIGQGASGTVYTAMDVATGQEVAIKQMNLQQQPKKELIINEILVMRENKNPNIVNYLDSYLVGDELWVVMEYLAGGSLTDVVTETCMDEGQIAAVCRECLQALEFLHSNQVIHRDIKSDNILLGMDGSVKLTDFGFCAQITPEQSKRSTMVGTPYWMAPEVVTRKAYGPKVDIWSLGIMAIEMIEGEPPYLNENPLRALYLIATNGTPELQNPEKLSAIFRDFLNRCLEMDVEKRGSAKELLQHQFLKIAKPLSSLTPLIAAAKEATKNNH
Format: biochemical
Design: purchased Carna Biosciences
Procedure: as §1
Test compounds were dissolved in 100% DMSO to prepare a 20 mM stock. Compounds were stored in −20° C. and protected from light. A 100×solution of the compounds were prepared, from which 4-fold serial dilutions was made to achieve a total of 6 concentrations. Saracatinib was used as a positive control for the SRC assay, and FRAX597 was used as a positive control for the PAK1 assay. For the positive controls, a 3-fold serial dilution was made to achieve a total of 10 concentrations. 10 μL 1× Kinase buffer was used as the negative control.
First, 250 nL of the compounds at each dilution were transferred into wells of a 384-well plate. The PAK1 and SRC kinases were diluted to a 2.5×final concentration with 1×Kinase buffer. Then, 10 μL of enzyme mix was added to the 384-well plate, and the enzymes and compounds were pre-incubated at room temperature for 10 minutes. […] Then, 15 μL of substrate mix was added to a 384-well plate and reacted at room temperature for 30 min and 60 min. The reaction was stopped by adding 30 μL of the stop buffer, and the conversion rate was read using a Caliper EZ Reader.
as §2, §3, §4, §5

IC50 [µM]	Structure (SMILES)
> 10	Fc1ccccc1Nc1ncc2c(n1)N1CCCN=C1C(c1cccc3[nH]ncc13)=C2 [Compound 58, N-(2-fluorophenyl)-6-(1H-indazol-4-yl)-9,10-dihydro-8H-pyrido[1,6-a:2,3-d′]dipyrimidin-2-amine]
< 0.1	CN1CCN(c2ccc(Nc3ncc4c(n3)N3CCN=C3C(c3ccc(Cl)cc3Cl)=C4)cc2F)CC1 [Compound 2, 6-(2,4-dichlorophenyl)-N-(3-fluoro-4-(4-methylpiperazin-1-yl)phenyl)-8,9-dihydroimidazo[1′,2′:1,6]pyrido[2,3-d]pyrimidin-2-amine]
> 10	Fc1cc(N2CCNCC2)ccc1Nc1ncc2c(n1)N1CCN=C1C(c1ccccn1)=C2 [Compound 32, N-(2-fluoro-4-(piperazin-1-yl)phenyl)-6-(pyridin-2-yl)-8,9-dihydroimidazo[1′,2′:1,6]pyrido[2,3-d]pyrimidin-2-amine]
> 10	Cc1ccccc1C1=Cc2cnc(Nc3ccc(N4CCNCC4)cc3F)nc2N2CCN=C12 [Compound 30, N-(2-fluoro-4-(piperazin-1-yl)phenyl)-6-(o-tolyl)-8,9-dihydroimidazo[1′,2′:1,6]pyrido[2,3-d]pyrimidin-2-amine]
> 10	COc1nc(N2CCNCC2)ccc1Nc1ncc2c(n1)N1CCN=C1C(c1ccccc1)=C2 [Compound 37, N-(2-methoxy-6-(piperazin-1-yl)pyridin-3-yl)-6-phenyl-8,9-dihydroimidazo[1′,2′:1,6]pyrido[2,3-d]pyrimidin-2-amine]
0.1 to 10	Clc1ccccc1C1=Cc2cnc(Nc3ccc(N4CCOCC4)cc3)nc2N2CCN=C12 [Compound 89, 6-(2-chlorophenyl)-N-(4-morpholinophenyl)-8,9-dihydroimidazo[1′,2′:1,6]pyrido[2,3-d]pyrimidin-2-amine]
> 10	Fc1cc(N2CCNCC2)ccc1Nc1ncc2c(n1)N1CCN=C1C(c1ccncc1)=C2 [Compound 34, N-(2-fluoro-4-(piperazin-1-yl)phenyl)-6-(pyridin-4-yl)-8,9-dihydroimidazo[1′,2′:1,6]pyrido[2,3-d]pyrimidin-2-amine]
0.1 to 10	Fc1cc(N2CCNCC2)ccc1Nc1ncc2c(n1)N1CCN=C1C(c1cscn1)=C2 [Compound 33, N-(2-fluoro-4-(piperazin-1-yl)phenyl)-6-(thiazol-4-yl)-8,9-dihydroimidazo[1′,2′:1,6]pyrido[2,3-d]pyrimidin-2-amine]
> 10	COc1nc(N2CCNCC2)ccc1Nc1ncc2c(n1)N1CCN=C1C(c1ccc(C)cc1)=C2 [Compound 38, N-(2-methoxy-6-(piperazin-1-yl)pyridin-3-yl)-6-(p-tolyl)-8,9-dihydroimidazo[1′,2′:1,6]pyrido[2,3-d]pyrimidin-2-amine]
